In test [1] the target is Reverse transcriptase/RNaseH (Human immunodeficiency virus 1, UniProt Q72547). The experiment in a line: Fluorescence-Based RNase H Assay. The settings on record: pH 8; 20 °C.
The target in test [2] is T1, Ribonuclease H1 (Homo sapiens, UniProt O60930).
T1 sequence (O60930 whole entry): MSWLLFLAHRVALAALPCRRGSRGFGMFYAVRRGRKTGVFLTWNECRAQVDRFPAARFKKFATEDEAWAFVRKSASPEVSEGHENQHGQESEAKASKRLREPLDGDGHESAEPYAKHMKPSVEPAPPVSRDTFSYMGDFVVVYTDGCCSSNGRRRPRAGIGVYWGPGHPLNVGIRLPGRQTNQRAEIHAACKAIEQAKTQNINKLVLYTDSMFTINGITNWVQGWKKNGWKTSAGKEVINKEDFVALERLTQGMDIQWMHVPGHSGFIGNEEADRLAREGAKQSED
Description: Fluorescence-Based RNase H Assay. The settings on record: pH 8; 20 °C.

pIC50: −log10 of the molar value. Bounds are passed on as bounds.

`O=C(O)c1nc(-c2ccccc2)nc(O)c1O`: the figures for the pIC50 in test [1] and in test [2] were 4.89 and less than 4.00, respectively.

Regarding `CC(C)c1ccc(O)c(=O)c(O)c1` [hydroxytropolone, 3], in test [1], the pIC50 (usually the negative decadic logarithm of the IC50, by convention in mol/L) was 6.18.

The values are drawn from BindingDB's records for doi:10.1021/jm900597q (Gilead Sciences, 2009).
